# What was measured:
# Assay in all cases: relative viability (nuclei count vs DMSO), 5 days (fraction); higher = more cells survive
# [1] = compound: CCC1=CN=CN=C1N2CCN(CC2)CC3=NC4=C(N3)C=C(C=C4)C(F)(F)F + COc1cccc2cc(-c3nc([C@H]4CC[C@H](C(=O)O)CC4)n4ncnc(N)c34)[nH]c12 [OSI-027] (partner 0.5 µM)
# Method in brief: (§1)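 The day after seeding in 1536-well plates, lung cancer cell lines were treated by pin tool with a single drug, or with a fixed anchor-drug dose together with five library-drug doses (not always all listed) in √10 steps. After 5 days, a combined fix-and-stain solution (final 0.05% Triton X-100, 1% formaldehyde, 1 ug/ml Hoechst) was added. Nuclei counted on 4× images gave relative viability as treated counts over vehicle counts, reported as the median of duplicate plates.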
# [2] = compound: CCC1=CN=CN=C1N2CCN(CC2)CC3=NC4=C(N3)C=C(C=C4)C(F)(F)F + O=C(CCCCCCC(=O)Nc1ccccc1)NO [Vorinostat] (partner 1 µM)
# Method in brief: as §1
# [3] = compound: CCn1c(-c2nonc2N)nc2cnc(Oc3cccc(NC(=O)c4ccc(OCCN5CCOCC5)cc4)c3)cc21 + COc1cccc2cc(-c3nc([C@H]4CC[C@H](C(=O)O)CC4)n4ncnc(N)c34)[nH]c12 [OSI-027] (partner 0.5 µM)
# Method in brief: as §1
# Mirin + Alpelisib = compound: N=C1NC(=O)/C(=C/c2ccc(O)cc2)S1 [Mirin] + Cc1nc(NC(=O)N2CCC[C@H]2C(N)=O)sc1-c1ccnc(C(C)(C)C(F)(F)F)c1 [Alpelisib] (partner 2 µM)
# Method in brief: as §1
Cell Line,relative viability ([1]; first compound 0.04 µM),relative viability ([1]; first compound 0.1265 µM),relative viability ([1]; first compound 0.4 µM),relative viability ([1]; first compound 1.265 µM),relative viability ([1]; first compound 4 µM),relative viability ([2]; first compound 0.04 µM),relative viability ([2]; first compound 0.1265 µM),relative viability ([2]; first compound 0.4 µM),relative viability ([2]; first compound 1.265 µM),relative viability ([2]; first compound 4 µM),relative viability ([3]; first compound 0.04 µM),relative viability ([3]; first compound 0.1265 µM),relative viability ([3]; first compound 0.4 µM),relative viability ([3]; first compound 1.265 µM),relative viability ([3]; first compound 4 µM),relative viability (Mirin + Alpelisib; first compound 0.25 µM),relative viability (Mirin + Alpelisib; first compound 0.7906 µM),relative viability (Mirin + Alpelisib; first compound 2.5 µM),relative viability (Mirin + Alpelisib; first compound 7.906 µM),relative viability (Mirin + Alpelisib; first compound 25 µM)
NCI-H322M,0.608,0.495,0.59,0.449,0.527,1.12,0.855,0.859,0.621,0.912,0.826,0.667,0.416,0.562,0.611,0.783,0.844,0.734,0.829,0.844
NCI-H1395,0.572,0.669,0.615,0.641,0.671,0.575,0.574,0.7,–,0.748,0.785,0.512,0.525,0.351,0.384,1.04,–,1.08,0.873,0.943
NCI-H650,0.444,0.427,0.555,0.543,0.511,0.414,0.455,0.448,0.363,0.477,0.601,0.39,0.254,0.238,0.265,1.04,–,1.09,–,1.1
NCI-H661,0.629,0.674,0.669,0.586,0.621,0.78,0.794,0.757,0.704,0.663,0.562,0.593,0.445,0.467,0.33,0.657,0.554,0.612,0.323,0.602
EKVX,0.615,0.73,0.705,–,0.717,0.767,0.678,0.739,0.575,0.659,0.839,0.77,0.613,0.65,0.545,0.909,0.817,0.992,0.773,0.788
NCI-H520,0.261,0.32,0.268,0.214,0.248,0.854,0.684,0.663,0.576,0.591,0.354,0.36,0.279,0.332,0.224,1.01,0.834,0.883,0.665,0.522
LCLC-97TM1,0.477,0.582,0.452,0.506,0.577,0.607,0.685,0.642,0.711,0.751,0.516,0.655,0.254,0.691,0.528,0.253,0.31,0.197,0.18,0.129
